# Reference: the supplement of paper PMC10307832
# Legend:
# Test in all cases: relative viability (nuclei count vs DMSO), 5 days (fraction); higher = more cells survive
# [1] = compound: CS(=O)(=O)c1ccc(-c2cnc(N)c(C(=O)Nc3ccccc3)n2)cc1 [VE-821] + CCNC(=O)c1noc(-c2cc(C(C)C)c(O)cc2O)c1-c1ccc(CN2CCOCC2)cc1 [Luminespib] (partner 0.01 µM)
# Method in brief: (§1)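 After 5 days of treatment, lung cancer cells in 1536-well plates were fixed and stained in a single step (final 0.05% Triton X-100, 1% formaldehyde, 1 ug/ml Hoechst) and their nuclei counted on 4× images. Treatment had been applied by pin tool the day after seeding as one drug alone or as a fixed anchor-drug dose with five library-drug doses (not always all listed) in √10 steps. Relative viability is the nuclei count of treated wells divided by that of vehicle wells, and values are medians of duplicate plates.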
# [2] = compound: CS(=O)(=O)c1ccc(C(=O)Nc2ccc(Cl)c(-c3ccccn3)c2)c(Cl)c1 [Vismodegib] + Nc1ncn([C@H]2C[C@H](O)[C@@H](CO)O2)c(=O)n1 [Decitabine] (partner 2 µM)
# Method in brief: as §1
# [3] = compound: CS(=O)(=O)c1ccc(C(=O)Nc2ccc(Cl)c(-c3ccccn3)c2)c(Cl)c1 [Vismodegib] + O=C(CCCCCCC(=O)Nc1ccccc1)NO [Vorinostat] (partner 1 µM)
# Method in brief: as §1
# [4] = compound: N#CC[C@H](C1CCCC1)n1cc(-c2ncnc3[nH]ccc23)cn1 [Ruxolitinib] + CC(C)C[C@H](NC(=O)[C@H](Cc1ccccc1)NC(=O)c1cnccn1)B(O)O [Bortezomib] (partner 0.002 µM)
# Method in brief: as §1
Cell Line,relative viability ([1]; first compound 0.08 µM),relative viability ([1]; first compound 0.253 µM),relative viability ([1]; first compound 0.8 µM),relative viability ([1]; first compound 2.53 µM),relative viability ([1]; first compound 8 µM),relative viability ([2]; first compound 0.08 µM),relative viability ([2]; first compound 0.253 µM),relative viability ([2]; first compound 0.8 µM),relative viability ([2]; first compound 2.53 µM),relative viability ([2]; first compound 8 µM),relative viability ([3]; first compound 0.08 µM),relative viability ([3]; first compound 0.253 µM),relative viability ([3]; first compound 0.8 µM),relative viability ([3]; first compound 2.53 µM),relative viability ([3]; first compound 8 µM),relative viability ([4]; first compound 0.08 µM),relative viability ([4]; first compound 0.253 µM),relative viability ([4]; first compound 0.8 µM),relative viability ([4]; first compound 2.53 µM),relative viability ([4]; first compound 8 µM)
LOU-NH91,0.431,0.366,0.319,0.345,0.279,0.796,0.806,0.84,0.819,0.81,0.884,0.899,0.793,0.845,0.885,0.52,0.463,0.492,0.47,0.534
LU99A,0.274,0.261,0.241,0.199,0.194,0.944,0.844,0.887,0.835,0.781,0.409,0.469,0.498,0.469,0.509,1.27,1.05,1.21,1.15,0.842
LXF-289,0.766,0.671,0.52,0.82,0.616,0.324,0.414,0.369,0.363,0.431,0.787,0.724,0.846,0.731,0.629,1,0.963,0.991,0.933,0.897
NCI-H23,0.202,0.223,0.214,0.236,0.213,0.362,0.321,0.329,0.323,0.358,0.622,0.568,0.496,0.434,0.571,1.12,1.02,1.34,0.89,0.731
NCI-H322M,0.958,0.87,0.632,0.4,0.266,0.694,0.651,0.661,0.822,0.635,0.925,0.842,0.848,0.851,0.855,1.18,1.31,1.26,1.52,1.64
NCI-H441,0.289,0.386,0.602,0.307,0.363,0.23,–,0.235,0.211,0.238,0.875,–,0.552,0.678,0.839,0.545,0.448,0.557,0.456,0.397
NCI-H460,0.0302,0.0482,0.0362,0.0342,0.0308,0.603,0.467,0.544,0.486,0.54,0.71,0.707,0.711,0.691,0.75,1.06,1.11,1.29,1.01,0.86
NCI-H520,0.218,0.24,0.191,0.276,0.227,0.491,0.445,0.572,0.459,0.499,0.71,0.697,0.747,0.553,0.701,–,0.323,0.859,0.323,0.364
NCI-H596,0.978,1.09,1,1.03,0.738,0.889,0.967,0.979,0.997,1.07,0.682,0.65,0.609,0.486,0.642,0.964,1.17,1.21,–,0.994
NCI-H647,0.257,0.344,0.168,0.131,0.158,0.38,0.327,0.38,0.385,0.409,0.586,0.424,0.63,0.511,0.654,0.867,0.942,1.23,0.783,0.885
NCI-H650,0.986,0.94,0.662,0.883,0.798,0.33,0.314,0.329,0.344,0.298,0.434,0.413,0.353,0.392,0.488,–,0.777,0.812,0.888,0.478
NCI-H661,0.88,0.944,0.958,0.914,0.803,0.47,0.528,0.549,0.575,0.577,0.785,0.768,0.841,0.737,0.763,0.66,0.858,0.998,0.792,0.908
NCI-H727,0.317,0.342,0.368,0.346,0.353,0.9,1.01,0.857,0.837,0.9,1.21,1.32,1.1,1.18,1.2,0.997,0.845,1.14,0.941,1.07
NCI-H838,0.275,0.225,0.224,0.266,0.158,0.464,0.43,0.502,0.431,0.609,0.696,0.715,0.727,0.743,0.733,0.875,0.652,0.887,0.398,0.342
NCI-H1355,0.71,0.665,0.643,0.597,0.409,0.354,0.333,0.347,0.372,0.364,0.716,0.632,0.569,0.611,0.648,1.25,1.13,1.14,1.11,1.22
NCI-H1437,1.19,1.15,1.06,1.19,0.878,0.587,0.533,0.606,0.554,0.501,0.824,0.756,0.806,0.732,0.804,0.634,0.519,0.586,0.413,0.464
NCI-H1650,0.204,0.19,0.25,0.211,0.172,0.411,0.388,0.426,0.447,0.512,0.568,0.523,0.48,0.543,0.569,–,0.185,0.188,0.18,0.195
NCI-H1651,0.907,0.819,0.63,1.16,0.679,0.581,0.617,0.682,0.528,0.579,0.581,0.582,0.547,0.49,0.503,0.944,0.923,0.937,0.794,0.969
NCI-H1666,1.04,1.01,1.1,1.03,0.761,0.763,0.774,0.739,0.676,0.69,1.04,0.957,1,1.01,1.06,0.685,0.833,0.861,0.781,0.96
NCI-H1734,0.199,0.197,0.208,0.165,0.193,0.466,0.437,0.47,0.505,0.499,0.791,0.732,0.821,0.723,0.737,0.928,0.924,0.983,0.74,0.835
NCI-H1755,0.514,0.344,0.427,0.468,0.201,0.686,0.727,0.693,0.677,0.723,0.836,0.659,0.85,0.809,0.762,0.984,1.04,1.03,0.853,0.658
NCI-H1915,0.816,0.752,0.698,0.726,0.525,0.265,0.264,0.236,0.245,0.258,0.491,0.488,0.497,0.434,0.534,0.956,0.955,0.91,0.961,0.905
NCI-H1975,0.213,0.197,0.26,0.193,0.193,0.386,0.444,0.396,0.414,0.404,0.63,0.683,0.738,0.744,0.687,0.415,0.382,0.482,0.303,0.316
NCI-H1993,1.1,0.857,0.67,0.655,0.704,0.524,0.68,0.588,0.587,0.543,0.854,0.69,0.728,0.779,0.794,0.893,1.02,1.23,1.26,1.29
NCI-H2009,1.03,0.974,0.918,1.09,0.863,0.363,0.377,0.366,0.416,0.344,0.724,0.921,0.723,0.708,0.722,1.19,0.963,1.31,0.828,0.646
NCI-H2023,0.734,0.624,0.458,0.212,0.125,0.224,0.197,0.285,0.246,0.236,0.625,0.53,0.711,0.654,0.612,1.13,0.928,1.43,0.844,1.01
NCI-H2085,0.439,0.457,0.385,0.411,0.309,0.548,0.461,0.544,0.56,0.561,0.743,0.835,0.821,0.852,0.727,0.964,1.06,1.26,0.904,0.822
